Laboratory results reported in patent US20070160501A1, “Device and method for treating a crystal by applying microdrops thereto” (PROTEROS BIOSTRUCTURES GMBH, priority 2003, published 2007).

Legend:
Human a Thrombin = Human a Thrombin (Homo sapiens, UniProt P00734); assay: Binding of PMSF to a freely mounted thrombin crystal by dripping on microdrops, X-ray crystallographic examination; conditions: 100 mM PMSF in isopropyl alcohol dripped on thrombin crystal; active center around Ser195; FIG. 4
Text: A thrombin crystal was mounted on the free mounting system by means of a loop at a previously determined initial humidity of 93%. Under a microscope, surplus reservoir buffer was cautiously removed from the loop by means of a strip of filter paper. The stability and the consistency of the size of the crystal, respectively, were monitored by means of the video system.
Herein, a highly concentrated PMSF solution in an organic solvent was used.
Subsequently, the crystal was bombarded with individual drops (single shot mode) of the solution. The total volume dripped on approximately corresponded to the volume of the crystal, i.e. about 300 pl. […] Herein, the projection of the surface of the crystal was monitored after each dripping-on and it was waited until the surface remained uniform again before the next drop was applied. The individual parameters of the experiment can be seen in Table 1.
After completion of dripping-on, the crystal was moistened with PFPE oil (perfluoropolyether) and shock-frozen in liquid nitrogen. The X-ray crystallographic data record was recorded on a rotating copper anode. Data processing was conducted by means of the programs XDS and XSCALE, refinement and manual model construction was conducted by means of the programs CNX and O. The statistics of data collection, processing, and refinement are given in Table 2.

human α-thrombin = human α-thrombin (Homo sapiens, UniProt P00734); conditions: stated in brackets without method; inhibitor used with human α-thrombin; cited from earlier work
[1] = cited from earlier work

| Structure (SMILES) | binding mode seen in the experimentally determined electron density (Human a Thrombin) | Ki (human α-thrombin) [µM] | stability in an aqueous system [1] |
| --- | --- | --- | --- |
| O=S(=O)(F)Cc1ccccc1 [PMSF, Phenylmethylsulfonyl Fluoride] | covalent bond of the PMSF at Ser195 | – | – |
| Cl.NCCc1ccc(S(=O)(=O)F)cc1 [Pefabloc SC, 4-(2-aminoethyl)-benzenesulfonyl-fluoride-hydrochloride] | – | 6.5 | high stability in an aqueous system |
